Test results from paper PMC6979384, “Characterization of the plant homeodomain (PHD) reader family for their histone tail interactions” (Epigenetics & Chromatin, 2020).

Columns and labels:
Test in all cases: Histone peptide microarray
Format in all cases: binding, human
BAZ2B = conditions: GST-tagged BAZ2B; histone peptide array; arrays performed twice, n of 4
Method in brief: (§1)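 Binding of recombinant GST-fused PHD readers (0.5 μM) is detected on an array of 293 histone peptides, modified singly or in combination. An optimized array protocol is followed, and each intensity is the average of quadruplicate measurements with standard deviation.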

DPF2 (PPC2W2) = conditions: GST-tagged DPF2 (PPC2W2 = Dual PHD + C2W2-type Zn-finger); histone peptide array; arrays performed twice, n of 4
Method in brief: as §1

SP140L = conditions: GST-tagged SP140L; histone peptide array; arrays performed twice, n of 4
Method in brief: as §1

PHF21A = conditions: GST-tagged PHF21A; histone peptide array; arrays performed twice, n of 4
Method in brief: as §1

KDM7A = conditions: GST-tagged KDM7A; histone peptide array; arrays performed twice, n of 4
Method in brief: as §1

RAG2 = conditions: GST-tagged RAG2; histone peptide array; arrays performed twice, n of 4
Method in brief: as §1

DIDO1 = conditions: GST-tagged DIDO1; histone peptide array; arrays performed twice, n of 4
Method in brief: as §1

KDM4C (TTP) = conditions: GST-tagged KDM4C (TTP = Tandem Tudor domain + PHD); histone peptide array; arrays performed twice, n of 4
Method in brief: as §1

PHF23 = conditions: GST-tagged PHF23; histone peptide array; arrays performed twice, n of 4
Method in brief: as §1

BPTF (PB) = conditions: GST-tagged BPTF (PB = PHD + Bromodomain); histone peptide array; arrays performed twice, n of 4
Method in brief: as §1

PHRF1 (RP) = conditions: GST-tagged PHRF1 (RP); histone peptide array; arrays performed twice, n of 4
Method in brief: as §1

ING4 = conditions: GST-tagged ING4; histone peptide array; arrays performed twice, n of 4
Method in brief: as §1

CHD5 (PPCC) = conditions: GST-tagged CHD5 (PPCC = Dual PHD + Dual Chromodomain); histone peptide array; arrays performed twice, n of 4
Method in brief: as §1

KDM5A (3) = conditions: GST-tagged KDM5A (3); histone peptide array; arrays performed twice, n of 4
Method in brief: as §1

MORC3 (CW) = conditions: GST-tagged MORC3 (CW = CW-type Zn-finger); histone peptide array; arrays performed twice, n of 4
Method in brief: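 A peptide microarray holding 293 synthetic histone peptides with individual or combinatorial modifications was probed with each GST-PHD protein at 0.5 μM. Values represent mean intensity (±SD) from four replicates.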

ING3 = conditions: GST-tagged ING3; histone peptide array; arrays performed twice, n of 4
Method in brief: as §1

ING1 = conditions: GST-tagged ING1; histone peptide array; arrays performed twice, n of 4
Method in brief: as §1

ING5 = conditions: GST-tagged ING5; histone peptide array; arrays performed twice, n of 4
Method in brief: as §1

CHD4 (PPCC) = conditions: GST-tagged CHD4 (PPCC = Dual PHD + Dual Chromodomain); histone peptide array; arrays performed twice, n of 4
Method in brief: as §1

KDM5A (1) = conditions: GST-tagged KDM5A (1); histone peptide array; arrays performed twice, n of 4
Method in brief: as §1

AIRE (PP) = conditions: GST-tagged AIRE (PP); histone peptide array; arrays performed twice, n of 4
Method in brief: as §1

PHF13 = conditions: GST-tagged PHF13; histone peptide array; arrays performed twice, n of 4
Method in brief: as §1

PHF8 = conditions: GST-tagged PHF8; histone peptide array; arrays performed twice, n of 4
Method in brief: as §1

TAF3 = conditions: GST-tagged TAF3; histone peptide array; arrays performed twice, n of 4
Method in brief: as §1

CHD5 (PCC) = conditions: GST-tagged CHD5 (PCC = PHD + Dual Chromodomain); histone peptide array; arrays performed twice, n of 4
Method in brief: as §1

PHF2 = conditions: GST-tagged PHF2; histone peptide array; arrays performed twice, n of 4
Method in brief: as §1

TRIM66 (PB) = conditions: GST-tagged TRIM66 (PB = PHD + Bromodomain); histone peptide array; arrays performed twice, n of 4
Method in brief: as §1

ING2 = conditions: GST-tagged ING2; histone peptide array; arrays performed twice, n of 4
Method in brief: as §1

KDM5B (1) = conditions: GST-tagged KDM5B (1); histone peptide array; arrays performed twice, n of 4
Method in brief: as §1

MLL5 = conditions: GST-tagged MLL5; histone peptide array; arrays performed twice, n of 4
Method in brief: as §1

KDM5B (3) = conditions: GST-tagged KDM5B (3); histone peptide array; arrays performed twice, n of 4
Method in brief: as §1

H4R3me2a: H4 1-23 [Peptide H4R3me2a]
Array Heatmap signal, BAZ2B (BAZ2B): 0.5399
Array Heatmap signal, DPF2 (PPC2W2) (DPF2 (PPC2W2)): 0.6681
Array Heatmap signal, SP140L (SP140L): 0.3676
Array Heatmap signal, PHF21A (PHF21A): 0.4696
Array Heatmap signal, KDM7A (KDM7A): 0.5968
Array Heatmap signal, RAG2 (RAG2): 0.3803
Array Heatmap signal, DIDO1 (DIDO1): 0.7103
Array Heatmap signal, KDM4C (TTP) (KDM4C (TTP)): 0.5587
Array Heatmap signal, PHF23 (PHF23): 0.5402
Array Heatmap signal, BPTF (PB) (BPTF (PB)): 0.3886
Array Heatmap signal, PHRF1 (RP) (PHRF1 (RP)): 0.4379
Array Heatmap signal, ING4 (ING4): 0.4842
Array Heatmap signal, CHD5 (PPCC) (CHD5 (PPCC)): 0.5601
Array Heatmap signal, KDM5A (3) (KDM5A (3)): 0.5304
Array Heatmap signal, MORC3 (CW) (MORC3 (CW)): 0.3932
Array Heatmap signal, ING3 (ING3): 0.4883
Array Heatmap signal, ING1 (ING1): 0.5321
Array Heatmap signal, ING5 (ING5): 0.4061
Array Heatmap signal, CHD4 (PPCC) (CHD4 (PPCC)): 0.544
Array Heatmap signal, KDM5A (1) (KDM5A (1)): 0.4898
Array Heatmap signal, AIRE (PP) (AIRE (PP)): 0.5327
Array Heatmap signal, PHF13 (PHF13): 0.6445
Array Heatmap signal, PHF8 (PHF8): 0.391
Array Heatmap signal, TAF3 (TAF3): 0.3922
Array Heatmap signal, CHD5 (PCC) (CHD5 (PCC)): 0.8242
Array Heatmap signal, PHF2 (PHF2): 0.4976
Array Heatmap signal, TRIM66 (PB) (TRIM66 (PB)): 0.665
Array Heatmap signal, ING2 (ING2): 0.6586
Array Heatmap signal, KDM5B (1) (KDM5B (1)): 0.6754
Array Heatmap signal, MLL5 (MLL5): 0.6462
Array Heatmap signal, KDM5B (3) (KDM5B (3)): 0.6206

H4R3me2s + K5ac + K8ac + K12ac + K16ac + K20ac: H4 1-23
Array Heatmap signal, BAZ2B (BAZ2B): 0.4891
Array Heatmap signal, DPF2 (PPC2W2) (DPF2 (PPC2W2)): 0.6954
Array Heatmap signal, SP140L (SP140L): 0.3449
Array Heatmap signal, PHF21A (PHF21A): 0.4472
Array Heatmap signal, KDM7A (KDM7A): 0.3478
Array Heatmap signal, RAG2 (RAG2): 0.3093
Array Heatmap signal, DIDO1 (DIDO1): 0.8519
Array Heatmap signal, KDM4C (TTP) (KDM4C (TTP)): 0.4958
Array Heatmap signal, PHF23 (PHF23): 0.5758
Array Heatmap signal, BPTF (PB) (BPTF (PB)): 0.483
Array Heatmap signal, PHRF1 (RP) (PHRF1 (RP)): 0.4884
Array Heatmap signal, ING4 (ING4): 0.4768
Array Heatmap signal, CHD5 (PPCC) (CHD5 (PPCC)): 0.5595
Array Heatmap signal, KDM5A (3) (KDM5A (3)): 0.5291
Array Heatmap signal, MORC3 (CW) (MORC3 (CW)): 0.4281
Array Heatmap signal, ING3 (ING3): 0.4923
Array Heatmap signal, ING1 (ING1): 0.5887
Array Heatmap signal, ING5 (ING5): 0.3711
Array Heatmap signal, CHD4 (PPCC) (CHD4 (PPCC)): 0.5891
Array Heatmap signal, KDM5A (1) (KDM5A (1)): 0.4598
Array Heatmap signal, AIRE (PP) (AIRE (PP)): 0.4445
Array Heatmap signal, PHF13 (PHF13): 0.6071
Array Heatmap signal, PHF8 (PHF8): 0.384
Array Heatmap signal, TAF3 (TAF3): 0.282
Array Heatmap signal, CHD5 (PCC) (CHD5 (PCC)): 0.7755
Array Heatmap signal, PHF2 (PHF2): 0.6188
Array Heatmap signal, TRIM66 (PB) (TRIM66 (PB)): 0.6231
Array Heatmap signal, ING2 (ING2): 0.6618
Array Heatmap signal, KDM5B (1) (KDM5B (1)): 0.6719
Array Heatmap signal, MLL5 (MLL5): 0.5888
Array Heatmap signal, KDM5B (3) (KDM5B (3)): 0.4887
